Data reported in PMC8533391 (2021).

Tested on: d(GTTAATCGCTGG) double-stranded DNA 12-oligomer (DNA, duplex) GTTAATCGCTGG/CCAGCGATTAAC
Assay: UV melting at 260 nm
Conditions: Na+ (0.05 mM NaOH), 10 μM compound, 2.5 μM DNA, cacodylate, pH 7.2

| ΔTm (derived from two Tm (47.4 ± 0.6, free 48.3 ± 0.3)) [°C] | ΔTm (derived from two Tm (46.2 ± 0.8, free 48.3 ± 0.3)) [°C] | SMILES |
| --- | --- | --- |
| -0.9 |  | C(=N\[C@H]1CC[C@H](/N=C/c2nccs2)CC1)/c1nccs1 |
|  | -2.1 | C(=N\[C@H]1CC[C@H](/N=C/c2nccs2)CC1)/c1nccs1.C(=N\[C@H]1CC[C@H](/N=C/c2nccs2)CC1)/c1nccs1.[Ag+].[Ag+] |
